Measured values published in patent US10358434B2, “2-(3-pyridinyl)-1H-benzimidazole derivative compound and medicament containing same” (NIHON MEDI-PHYSICS CO., LTD., priority 2014, dated 2019).

Tests used:
[1] = test system: human adrenal gland section expressing aldosterone-producing adenoma; assay: In vitro autoradiography using human adrenal adenoma; format: binding
Text: From adrenal gland excised from a human patient for treatment of primary aldosteronism, a portion containing aldosterone-producing adenoma was removed and was then frozen. The frozen adrenal gland was embedded in an embedding agent for production of a frozen tissue section (Tissue-Tek O.C.T. Compound, Sakura Finetek Japan). Using a freezing microtome (CM3050S, Leica Microsystems), a 7-μm thin slice section, which is schematically shown in FIGS. 17(a) and 17(b), was produced, and was preserved at −20° C. before use. In FIGS. 17, 71a and 71b indicate aldosterone-producing adenomas, 72a and 72b indicate normal adrenal cortexes, and 73a and 73b indicate normal adrenal medullas. A 5-33 kBq/mL solution was prepared by adding a suitable amount of each of Compounds [^18F] 100, [^18F] 200, [^123I] 400, [^18F] 500, and [^123I] 601 to [^123I] 610, which were obtained by the methods described in Examples 2, 4, 7, 9, 11, 13, 15, 17, 19, 21, 23, 25, 27, and 29, or [^123I] IMTO to a phosphate-buffered physiological saline containing 1 w/v % bovine serum albumin (not containing fatty acid). The radioactivity concentration was measured using an autowell gamma system (ARC-7001, manufactured by Hitachi Aloka Medical, Ltd.). The section was immersed in the obtained sample solution for 10 minutes. For Compounds [^18F] 100, [^18F] 200, [^123I] 400, [^18F] 500, [^123I] 601 and [^123I] 602, the section shown in FIG. 17(a) was used, and for Compounds […] [^123I] IMTO, both sections shown in FIGS. 17(a) and (b) were used. Each sample solution was washed off, and the section was then exposed to an imaging plate (BAS-SR2040, manufactured by FUJIFILM Holdings Corporation) (IP) for 16-20 hours, and thereafter, an autoradiogram was obtained using a fluoro-image analyzer (FLA-7000, manufactured by FUJIFILM Holdings Corporation).
In order to quantitatively compare differences between images caused by ^123I and ^18F nuclides, a correction was made by calculating accumulation of radioactivity within the range of a region of interest (ROI) by means of integral calculation based on half-life, added radioactivity and IP contact time.
610. FIG. 18(b), FIG. 19(b), FIG. 20(b), FIG. 21(b), FIG. 22(a), FIG. 23(a), FIG. 24(a), FIG. 25(a), FIG. 26(a), FIG. 27(a), FIG. 28(a), FIG. 29(a), FIG. 30(a), and FIG. 31(a) each show an autoradiogram of [^123I] IMTO. […] 100, [^18F] 200, [^123I] 400, [^18F] 500, and [^123I] 601 to [^123I] […] The ROI having the same area as each other was established in a normal site and in a site in which aldosterone-producing adenoma had developed. Then, the PSL value (B1) indicating accumulation of radioactivity in the sites of normal adrenal cortexes 72a and 72b was compared with the PSL value (B2) indicating accumulation of radioactivity in the sites of aldosterone-producing adenomas 71a and 71b. In Table 7, the B1, B2 and B2/B1 values of [^18F] 100 indicate the mean values for the number of tests (n), respectively.

[2] = In vivo kinetics experiment (radioactivity distribution); design: species or system Wistar male rat; details: rat; for Adrenal gland/blood ratio of radioactivity accumulation / Adrenal gland/fat ratio of radioactivity accumulation / Adrenal gland/kidney ratio of radioactivity accumulation / Adrenal gland/liver ratio of radioactivity accumulation / Adrenal gland/muscle ratio of radioactivity accumulation / Adrenal gland/small intestine ratio of radioactivity accumulation / Radioactivity distribution Adrenal gland / Radioactivity distribution Bladder (including urine) / Radioactivity distribution Blood / Radioactivity distribution Fat / Radioactivity distribution Femur / Radioactivity distribution Heart / Radioactivity distribution Kidney / Radioactivity distribution Large intestine / Radioactivity distribution Liver / Radioactivity distribution Lung / Radioactivity distribution Muscle (lower limbs) / Radioactivity distribution Remaining whole body / Radioactivity distribution Small intestine / Radioactivity distribution Spleen / Radioactivity distribution Stomach / Radioactivity distribution Testis / Radioactivity distribution Whole brain: caudal vein
Procedure: Each of Compounds [^18F] 100, [^18F] 200, [^123I] 400, [^18F] 500, and [^123I] 601 to 610 obtained by the methods described in Examples 2, 4, 7, 9, 11, 13, 15, 17, 19, 21, 23, 25, 27, and 29, or [^123I] IMTO, was diluted with a physiological saline containing 1 w/v % ascorbic acid to prepare a solution to be administered. The above described compound (approximately 1 to 3.7 MBq) was injected into the caudal vein of a Wistar male rat (9 weeks old) under anesthesia with a mixed gas of isoflurane/air, and ten minutes after the injection, the rat was sacrificed by exsanguination. From the thus sacrificed rat, blood and organs (heart, lung, stomach, liver, spleen, small intestine, large intestine, kidney, bladder (including urine), muscle (lower limbs), brain, adrenal gland, testis, fat, femur, or thyroid gland) were excised, and the weights thereof were then measured. Thereafter, radioactivity was measured in the blood, the individual excised organs, and the remaining whole body. Further, 30 and 60 minutes after the administration, the same operations as those described above were carried out. […] The symbol “n” in Tables 9 to 23 indicates the number of rats used. In addition, Tables 9 to 23 also show the ratio of radioactivity accumulation in adrenal grand (% ID/g) to radioactivity accumulation in each of blood, liver, kidney, small intestine, muscle and fat (% ID/g).

[3] = Plasma stability evaluation (TLC analysis); format: in vitro ADME; details: 37° C., 60 minutes
Procedure: Evaluation was made using a heparin-treated normal human plasma pool (Kohjin Bio Co., Ltd.). Compounds [^18F] 100, [^18F] 200, [^123I] 400, [^18F] 500, and [^123I] 601 to 610 obtained by the methods shown in Examples 2, 4, 7, 9, 11, 13, 15, 17, 19, 21, 23, 25, 27, and 29 were each added to the aforementioned human plasma (5 mL), and the obtained mixture was then incubated at 37° C. for 60 minutes. Thereafter, the mixture was centrifuged with addition of methanol, so that a deproteinization treatment was carried out. Thereafter, stability was evaluated by TLC analysis. As TLC analysis conditions, the TLC analysis conditions applied upon the above described synthesis of each compound were applied.

Fc1cc2nc(-c3cncc(Cn4ccnc4)c3)n(CC[18F])c2cc1Br [[^18F] 200, 6-Bromo-5-fluoro-1-(2-[^18F]fluoroethyl)-2-[5-(imidazol-1-ylmethyl)pyridin-3-yl]benzimidazole]
accumulation of radioactivity in adrenal gland section (autoradiogram) ([1]; FIGS. 18 to 31): accumulation of radioactivity was selectively observed in a region in which aldosterone-producing adenoma had been pathologically observed | B2/B1 accumulation ratio ([1]; section of FIG. 17(a)): 3.34 | B2 (PSL value, aldosterone-producing adenoma) ([1]; section of FIG. 17(a), site 71a): 4409 | B1 (PSL value, normal adrenal cortex) ([1]; section of FIG. 17(a), site 72a): 1321 | accumulation of radioactivity in adrenal gland vs blood and peripheral tissues ([2]; Tables 9 to 22): high accumulation of radioactivity in adrenal gland was observed, in comparison to in blood and peripheral tissues | Adrenal gland/blood ratio of radioactivity accumulation ([2]; 10 min after administration): 100.87 ± 36.73 | Adrenal gland/fat ratio of radioactivity accumulation ([2]; 10 min after administration): 174.42 ± 63.32 | Adrenal gland/kidney ratio of radioactivity accumulation ([2]; 10 min after administration): 11.40 ± 5.81 | Adrenal gland/liver ratio of radioactivity accumulation ([2]; 10 min after administration): 2.68 ± 1.01 | Adrenal gland/muscle ratio of radioactivity accumulation ([2]; 10 min after administration): 88.35 ± 26.16 | Adrenal gland/small intestine ratio of radioactivity accumulation ([2]; 10 min after administration): 13.32 ± 3.08 | Radioactivity distribution Adrenal gland ([2]; 10 min after administration): 14.35 ± 4.09 % ID/g | Radioactivity distribution Bladder (including urine) ([2]; 10 min after administration): 1.28 ± 0.11 % ID/g | Radioactivity distribution Blood ([2]; 10 min after administration): 0.15 ± 0.01 % ID/g | Radioactivity distribution Fat ([2]; 10 min after administration): 0.08 ± 0.02 % ID/g | Radioactivity distribution Femur ([2]; 10 min after administration): 0.38 ± 0.03 % ID/g | Radioactivity distribution Heart ([2]; 10 min after administration): 0.32 ± 0.03 % ID/g | Radioactivity distribution Kidney ([2]; 10 min after administration): 1.39 ± 0.39 % ID/g | Radioactivity distribution Large intestine ([2]; 10 min after administration): 0.16 ± 0.01 % ID/g | Radioactivity distribution Liver ([2]; 10 min after administration): 5.54 ± 0.78 % ID/g | Radioactivity distribution Lung ([2]; 10 min after administration): 0.54 ± 0.07 % ID/g | Radioactivity distribution Muscle (lower limbs) ([2]; 10 min after administration): 0.16 ± 0.00 % ID/g | Radioactivity distribution Remaining whole body ([2]; 10 min after administration): 0.15 ± 0.00 % ID/g | Radioactivity distribution Small intestine ([2]; 10 min after administration): 1.07 ± 0.07 % ID/g | Radioactivity distribution Spleen ([2]; 10 min after administration): 1.49 ± 0.32 % ID/g | Radioactivity distribution Stomach ([2]; 10 min after administration): 0.36 ± 0.04 % ID/g | Radioactivity distribution Testis ([2]; 10 min after administration): 0.04 ± 0.00 % ID/g | Radioactivity distribution Whole brain ([2]; 10 min after administration): 0.02 ± 0.00 % ID/g | Adrenal gland/blood ratio of radioactivity accumulation ([2]; 30 min after administration): 145.45 ± 14.69 | Adrenal gland/fat ratio of radioactivity accumulation ([2]; 30 min after administration): 425.84 ± 103.54 | Adrenal gland/kidney ratio of radioactivity accumulation ([2]; 30 min after administration): 17.00 ± 1.67 | Adrenal gland/liver ratio of radioactivity accumulation ([2]; 30 min after administration): 5.06 ± 0.59 | Adrenal gland/muscle ratio of radioactivity accumulation ([2]; 30 min after administration): 158.65 ± 18.59 | Adrenal gland/small intestine ratio of radioactivity accumulation ([2]; 30 min after administration): 8.44 ± 1.36 | Radioactivity distribution Adrenal gland ([2]; 30 min after administration): 22.61 ± 2.12 % ID/g | Radioactivity distribution Bladder (including urine) ([2]; 30 min after administration): 2.82 ± 1.27 % ID/g | Radioactivity distribution Blood ([2]; 30 min after administration): 0.16 ± 0.00 % ID/g | Radioactivity distribution Fat ([2]; 30 min after administration): 0.06 ± 0.02 % ID/g | Radioactivity distribution Femur ([2]; 30 min after administration): 0.40 ± 0.10 % ID/g | Radioactivity distribution Heart ([2]; 30 min after administration): 0.33 ± 0.02 % ID/g | Radioactivity distribution Kidney ([2]; 30 min after administration): 1.33 ± 0.03 % ID/g | Radioactivity distribution Large intestine ([2]; 30 min after administration): 0.27 ± 0.04 % ID/g | Radioactivity distribution Liver ([2]; 30 min after administration): 4.48 ± 0.13 % ID/g | Radioactivity distribution Lung ([2]; 30 min after administration): 0.48 ± 0.04 % ID/g | Radioactivity distribution Muscle (lower limbs) ([2]; 30 min after administration): 0.14 ± 0.01 % ID/g | Radioactivity distribution Remaining whole body ([2]; 30 min after administration): 0.13 ± 0.02 % ID/g | Radioactivity distribution Small intestine ([2]; 30 min after administration): 2.70 ± 0.21 % ID/g | Radioactivity distribution Spleen ([2]; 30 min after administration): 1.09 ± 0.25 % ID/g | Radioactivity distribution Stomach ([2]; 30 min after administration): 0.56 ± 0.06 % ID/g | Radioactivity distribution Testis ([2]; 30 min after administration): 0.05 ± 0.04 % ID/g | Radioactivity distribution Whole brain ([2]; 30 min after administration): 0.01 ± 0.00 % ID/g | Adrenal gland/blood ratio of radioactivity accumulation ([2]; 60 min after administration): 168.33 ± 36.80 | Adrenal gland/fat ratio of radioactivity accumulation ([2]; 60 min after administration): 417.70 ± 25.29 | Adrenal gland/kidney ratio of radioactivity accumulation ([2]; 60 min after administration): 18.05 ± 3.00 | Adrenal gland/liver ratio of radioactivity accumulation ([2]; 60 min after administration): 6.87 ± 1.26 | Adrenal gland/muscle ratio of radioactivity accumulation ([2]; 60 min after administration): 180.41 ± 24.02 | Adrenal gland/small intestine ratio of radioactivity accumulation ([2]; 60 min after administration): 5.43 ± 1.42 | Radioactivity distribution Adrenal gland ([2]; 60 min after administration): 21.73 ± 3.25 % ID/g | Radioactivity distribution Bladder (including urine) ([2]; 60 min after administration): 5.83 ± 2.21 % ID/g | Radioactivity distribution Blood ([2]; 60 min after administration): 0.13 ± 0.01 % ID/g | Radioactivity distribution Fat ([2]; 60 min after administration): 0.05 ± 0.00 % ID/g | Radioactivity distribution Femur ([2]; 60 min after administration): 0.28 ± 0.00 % ID/g | Radioactivity distribution Heart ([2]; 60 min after administration): 0.27 ± 0.02 % ID/g | Radioactivity distribution Kidney ([2]; 60 min after administration): 1.21 ± 0.04 % ID/g | Radioactivity distribution Large intestine ([2]; 60 min after administration): 0.41 ± 0.06 % ID/g | Radioactivity distribution Liver ([2]; 60 min after administration): 3.18 ± 0.23 % ID/g | Radioactivity distribution Lung ([2]; 60 min after administration): 0.39 ± 0.09 % ID/g | Radioactivity distribution Muscle (lower limbs) ([2]; 60 min after administration): 0.12 ± 0.00 % ID/g | Radioactivity distribution Remaining whole body ([2]; 60 min after administration): 0.12 ± 0.00 % ID/g | Radioactivity distribution Small intestine ([2]; 60 min after administration): 4.13 ± 0.83 % ID/g | Radioactivity distribution Spleen ([2]; 60 min after administration): 0.68 ± 0.05 % ID/g | Radioactivity distribution Stomach ([2]; 60 min after administration): 0.65 ± 0.16 % ID/g | Radioactivity distribution Testis ([2]; 60 min after administration): 0.09 ± 0.00 % ID/g | Radioactivity distribution Whole brain ([2]; 60 min after administration): 0.01 ± 0.00 % ID/g | stability in human plasma [3]: hardly metabolized and decomposed in the plasma | Radiochemical purity after incubation in human plasma ([3]; TLC analysis): 92%
